Experimental data published in patent US20060194769A1, “Small molecules that reduce fungal growth” (University of Vermont and State Agricultural College, priority 2005, published 2006).

Assays:
Candida albicans = assay: Quantification of inhibition of the budded-to-hyphal-form transition and synergy assay in 10% serum media; type: cell-based; conditions: 37° C., synergy assay: two molecules (100 μM) added together, normalized to % hyphae formed when no molecule was added
Procedure: Cultures of Candida albicans were grown as described in Toenjes K. A. et al. (Antimicrobial Agents and Chemotherapy, 49(3):963-972, 2005). To induce hyphal growth, stationary-phase cultures were diluted into 5 ml of either YPD (1% yeast extract, 2% peptone, and 2% dextrose) plus 10% (vol/vol) fetal calf serum, Spider medium, Lee's medium (Lee, K. et al., Sabouraudia, 13:148-153, 1975), or M199 pH 8 medium (Sigma-Aldrich, St. Louis, Mo.) and grown at 37° C. with shaking at 250 rpm.
Quantification of inhibition of the budded-to-hyphal-form transition was accomplished by counting the numbers of individual budded cells versus the number of hyphae in the population. More than 100 cells were counted for each assay in duplicate and all assays were repeated four times. Individual hyphae were counted as one cell, although the hyphae usually consisted of multiple individual hyphal cells. The percentage of hyphae reported was normalized to the percentage of hyphae formed when no molecule was added.
For the synergy assay, two different molecules (100 μM) were added together and the assay was performed in 10% serum media to induce hyphal formation.

tumor = conditions: cited from earlier work

Structure (SMILES)	% hyphae in 10% serum (Candida albicans) [%]	anti-tumor activity (tumor)
CN1CCN(C2=Nc3cc(Cl)ccc3Nc3ccccc32)CC1 [Clozapine, 8-Chloro-11-(4-methyl-1-piperazinyl)-5H-dibenzo[b,e][1,4]-diazepine]	33	
O=C(Nc1ccccc1)c1cc([N+](=O)[O-])ccc1Cl [GW9662, 2-Chloro-5-nitro-N-phenylbenzamide]	59	
OCc1ccc(-c2nn(Cc3ccccc3)c3ccccc23)o1 [YC-1, 3-(5′-Hydroxymethyl-2′-furyl)-1-benzylindazole]		potent anti-tumor activity
CCC(C)C(COC(Cc1ccccc1)C(=O)NC(CCS(C)(=O)=O)C(=O)OC(C)C)NCC(N)CS [L-744,832, (2S)-2-[[(2S)-2-[(2S,3S)-2-[(2R)-2-Amino-3-mercaptopropyl]amino]-3-methylpentyl]oxy]-1-oxo-3-phenylpropyl]amino]-4-(methylsulfonyl)-butanoic Acid 1-Methylethyl Ester]		potent anti-tumor activity
CCOC(=O)C1=C(N)Oc2ccc(Br)cc2C1C(C#N)C(=O)OCC (centres unmarked) [HA14-1, Ethyl[2-amino-6-bromo-4-(1-cyano-2-ethoxy-2-oxoethyl)]-4H-chromene-3-carboxylate]	34	
